The record followed here is ChEMBL document CHEMBL3352228 (J Med Chem, 2014).

Molecules are shown by their SMILES.

For orientation: Papp means a coefficient for how fast a substance crosses the barrier.

The first data set concerns Plasma.
Assay: not given
Conditions: rat, in vivo, po, 10 mg/kg, 4 h.
Consider `CC1(C)C=C(c2cnc3c(c2)[C@]2(COC(N)=N2)c2cc(-c4cccnc4F)ccc2O3)CCO1`, for which the “Cp(f)” value came to 45 nM.

Tested on in a further data set: not listed separately
Nature of the data set: in vivo. As to conditions: Sprague-Dawley, rat, plasma, po, 10 mg/kg.
Consider `CC1(C)C=C(c2cnc3c(c2)[C@]2(COC(N)=N2)c2cc(-c4cccnc4F)ccc2O3)CCO1`, for which the concentration at 4 h amounted to 1010 nM.

Tested on in a further data set: not listed separately
The data set can be described thus: in vivo. Conditions: Sprague-Dawley, rat, CSF, po, 10 mg/kg.
`CC1(C)C=C(c2cnc3c(c2)[C@]2(COC(N)=N2)c2cc(-c4cccnc4F)ccc2O3)CCO1` returned a concentration at 4 h of 5 nM.

Tested on in a further data set: not listed separately
The data set can be described thus: in vitro. Conditions: pig, LLC-PK1.
`COC(C)(C)C#Cc1cnc2c(c1)[C@]1(COC(N)=N1)c1cc(-c3cccnc3F)ccc1O2` yielded a Papp at 2 h of 12 ×10⁻⁶ cm/s.
On the same count and under the same terms, then `CC1(C)C=C(c2cnc3c(c2)[C@]2(COC(N)=N2)c2cc(-c4cccnc4F)ccc2O3)CCO1`, with 17 ×10⁻⁶ cm/s; and `CC(C)(C)COc1ccc2c(c1)[C@]1(COC(N)=N1)c1cc(-c3cncnc3)cnc1O2`, with 16 ×10⁻⁶ cm/s.
Still for that read-out and setting: then `NC1=N[C@@]2(CO1)c1cc(-c3cccnc3F)ccc1Oc1ncc(C3=CCOCC3)cc12`, with 20 ×10⁻⁶ cm/s.
The molecule `NC1=N[C@@]2(CO1)c1cc(-c3cccnc3F)ccc1Oc1ncc(C3=CCCOC3)cc12` gave a Papp at 2 h of 11 ×10⁻⁶ cm/s.
Still for that read-out and setting: then `CC(C)(O)C#Cc1cnc2c(c1)[C@]1(COC(N)=N1)c1cc(-c3cccnc3F)ccc1O2`, with 11 ×10⁻⁶ cm/s; and `NC1=N[C@@]2(CO1)c1cc(-c3cccnc3F)ccc1Oc1ncc(N3CCOCC3)cc12`, with 10 ×10⁻⁶ cm/s.
For the molecule `CC(C)(C)COc1cnc2c(c1)[C@]1(COC(N)=N1)c1cc(-c3cccnc3)ccc1O2`, the Papp at 2 h is 11 ×10⁻⁶ cm/s.
The same measure, in the same setting: as for `CC(C)(C)COc1cnc2c(c1)[C@]1(COC(N)=N1)c1cc(-c3cccnc3F)ccc1O2`, the figure is 14 ×10⁻⁶ cm/s.
The molecule `CC(C)(C)C#Cc1cnc2c(c1)[C@]1(COC(N)=N1)c1cc(-c3cccnc3F)ccc1O2` showed a Papp at 2 h of 9.5 ×10⁻⁶ cm/s.
Still for that read-out and setting: as for `N#Cc1ccc(-c2cnc3c(c2)[C@]2(COC(N)=N2)c2cc(-c4cccnc4F)ccc2O3)cc1`, the figure is 16 ×10⁻⁶ cm/s; as for `NC1=N[C@@]2(CO1)c1cc(-c3cccnc3F)ccc1Oc1ncc(C3CCOCC3)cc12`, 15 ×10⁻⁶ cm/s.
Same read-out and setting: as for `NC1=N[C@@]2(CO1)c1cc(-c3cccnc3F)ccc1Oc1ncc(-c3ccnc(F)c3)cc12`, the figure is 15 ×10⁻⁶ cm/s; as for `CC(C)(C)COc1cnc2c(c1)[C@]1(COC(N)=N1)c1cc(-c3cncnc3)ccc1O2`, 16 ×10⁻⁶ cm/s.
The same measure, in the same setting: then `Cc1ccc(-c2cnc3c(c2)[C@]2(COC(N)=N2)c2cc(-c4cccnc4F)ccc2O3)cc1`, with 14 ×10⁻⁶ cm/s; and `COC(C)(C)COc1cnc2c(c1)[C@]1(COC(N)=N1)c1cc(-c3cccnc3F)ccc1O2`, with 16 ×10⁻⁶ cm/s.
